The values below come from patent EP4789662A1, “POWDER FOR INHALATION” (Nagase Viita Co., Ltd., priority 2023, dated 2025).

Usually Cmax stands for the maximum level reached in the sampled fluid or tissue. In general, Tmax refers to the time from dosing to the highest level.

For data set [1], the system named is chronic obstructive pulmonary disease (COPD). The experiment in a line: Animal test 1: OVA-induced COPD in rats, lung tissue and BALF infiltrating cells. The format is in vivo. As to conditions: OVA-challenge; p.o. 60 mg/kg; BALF 24 h after OVA; Mean±S.E. (n=4). How it is done:
In order to evaluate the pharmacological effect of the mT/PL-RP (Example 1) via intratracheal administration, chronic obstructive pulmonary disease (COPD) was induced in rats, and the effect was compared with the effect via oral administration. Ovalbumin (OVA, Sigma-Aldrich) was intraperitoneally administered three times at seven-day intervals. Next day, the mT/PL-RP (Example 1) (5 mg-PL/kg) was intratracheally administered, or the PL (Comparative Example 2) (60 mg/kg) was orally administered. One hour after the administration, inflammation was caused by intratracheally administering micronized OVA powder to induce COPD. Twenty-four hours after the inflammation caused by OVA administration, the lungs were excised and bronchoalveolar lavage fluid (BALF) was collected. The lung tissue was stained with peroxidase by a standard method and subsequently observed. […] FIG. 8 and Table 6 show the result.

A short description of data set [2]: Animal test 2: amount of PL transferred into blood (pharmacokinetics). It counts as in vivo. As to conditions: rat, po, rats, p.o. 60 mg/kg, Mean±S.E. (n=4-5). Here is the method: The amount of PL transferred into blood was evaluated in oral administration and intratracheal administration. The blood PL concentrations up to 12 hours after administration were measured over time in a group of rats having undergone intratracheal administration of the mT/PL-RP (Example 1) (5 mg-PL/kg) and in a group of rats having undergone oral administration of the PL (Comparative Example 2) (60 mg/kg). FIG. 9 and Table 7 show the results.

For `O=C(Nc1cccc2c(=O)cc(-c3nnn[nH]3)oc12)c1ccc(OCCCCc2ccccc2)cc1` [Crystalline PL, pranlukast], in data set [1], the “Inflammatory cells in BALF, Eosinophils” value is 1.5 ± 0.6 × 10^4 cells/mL; the “Inflammatory cells in BALF, Macrophages” value is 3.1 ± 1.3 × 10^4 cells/mL; the “Inflammatory cells in BALF, Neutrophils” value is recorded as 11.5 ± 2.7 × 10^4 cells/mL. Moreover, in data set [2], the Cmax was 250 ± 160 ng/mL and the Tmax was 1.6 ± 0.6 h.
